Assay results as given in patent US20260176276A1, “COMPOUND FOR REGULATING AND CONTROLLING ACTIVITY OF 15-PGDH AND PREPARATION METHOD THEREFOR” (SCINNOHUB PHARMACEUTICAL CO., LTD, priority 2022, published 2026).

molecular target: T1, 15-PGDH (Homo sapiens, UniProt P15428); assay: Detection of activity of 15-PGDH kinase (enzyme inhibition, fluorescence slope); format: biochemical; details: inhibitory activity against 15-PGDH enzyme; substrates PGF2α and β-NAD; fluorescence Ex/Em=340/450
T1 construct: purchased Sino Biological Inc. 11205-H08E
T1 sequence (P15428 1-266): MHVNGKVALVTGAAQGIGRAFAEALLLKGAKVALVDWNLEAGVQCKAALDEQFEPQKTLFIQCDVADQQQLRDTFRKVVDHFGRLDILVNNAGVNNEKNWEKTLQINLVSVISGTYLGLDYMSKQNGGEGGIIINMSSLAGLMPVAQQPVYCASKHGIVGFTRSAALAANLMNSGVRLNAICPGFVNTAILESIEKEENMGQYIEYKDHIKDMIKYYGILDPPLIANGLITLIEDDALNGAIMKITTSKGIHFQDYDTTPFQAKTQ
Experimental: [table] • a. A solution of pH 7.5 containing 50 mM Tris-HCl, 0.01% Tween 20 was prepared with ultrapure water as a reaction buffer; • b. A 10 mM mother liquor of the compound to be tested was prepared with DMSO, and then the reaction buffer was used to dilute the mother liquor of the compound to be tested to obtain solution 1 of the compound to be tested at a concentration of 4000 nM, and then the solution 1 of the compound to be tested was serially diluted into solutions 2-10 of the compound to be tested at 9 concentrations with a gradient difference of three-fold. 5 μL of each of solutions 1-10 of the compound to be tested was taken and added into a 384-well plate as test wells; • c. 5 μL of the reaction buffer was added to the 384-well plate as positive control and blank control wells; • d. The reaction buffer was used to prepare a 15-PGDH protein solution at a concentration of 5 ng/μL, 5 μL of the 15-PGDH protein solution was taken and added to the test wells and positive control wells, and 5 μL of the reaction buffer was added to the blank control wells at the same time, then the plate was centrifuged at 2000 rpm for 30 seconds; • e. The reaction buffer was used to prepare 5 mM R-NAD and 2 mM PGF2α, respectively, which were mixed at 1:1 by volume to obtain a substrate mixture, 10 μL of the substrate mixture was taken and added to the test wells, positive control wells and blank control wells to start the reaction; • f. The fluorescence signal value (Ex/Em=340/450) of each well was detected continuously by using a multifunctional microplate reader. • a) Continuous fluorescence signal values were analyzed by using the “kinetic calculations-slope calculation method” in the PHERAstar Data analysis software to obtain the slope of each test well; • b) The inhibition rate % was calculated by using the following formula: [formula] • c) Calculation of IC50 and plotting of inhibition rate-dose curves: IC50 values were calculated by fitting compound concentrations and corresponding inhibition rates with nonlinear regression (dose response-variable slope) via using GraphPad Prism 6.0. The formula is shown below: [formula] wherein X is a log value of a concentration of the compound, and Y is inhibition rate %.

IC50 [nM]	Compound
> 30	CC(C)C[S+]([O-])c1sc2nc(-c3ccccc3)n3ccnc3c2c1N (stereo not drawn) [Example 25]
< 1.5	CCCC[S+]([O-])c1sc2nc(-c3ccccc3)n3cc(C)nc3c2c1N (stereo not drawn) [Example 5]
1.5 to 4	CCCC[S+]([O-])c1sc2nc(-c3ccc4c(c3)CN(C)C4=O)n3ccnc3c2c1N (stereo not drawn) [Example 21]
10 to 15	CC(C)(C)[S+]([O-])c1sc2nc(-c3ccccc3)n3ccnc3c2c1N (stereo not drawn) [Example 26]
< 1.5	CCCC[S+]([O-])c1sc2nc(-c3cccnc3)n3ccnc3c2c1N (stereo not drawn) [Example 13]
1.5 to 4	CCCC[S+]([O-])c1sc2nc(-c3ccc(C(=O)O)cc3)n3ccnc3c2c1N (stereo not drawn) [Example 22]
1.5 to 4	CCCC[S+]([O-])c1sc2nc(-c3ccsc3)n3ccnc3c2c1N (stereo not drawn) [Example 14]
10 to 15	Nc1c([S+]([O-])C2COC2)sc2nc(-c3ccccc3)n3ccnc3c12 (stereo not drawn) [Example 9]
1.5 to 4	CCCC[S+]([O-])c1sc2nc(-c3ccccc3)n3c(C)cnc3c2c1N (stereo not drawn) [Example 19]
4 to 10	Nc1c([S+]([O-])C2CCCC2)sc2nc(-c3ccccc3)n3ccnc3c12 (stereo not drawn) [Example 7]
1.5 to 4	CCCC[S+]([O-])c1sc2nc(-c3nccs3)n3ccnc3c2c1N (stereo not drawn) [Example 11]
4 to 10	CCC(C)C[S+]([O-])c1sc2nc(-c3ccccc3)n3ccnc3c2c1N (stereo not drawn) [Example 24]
1.5 to 4	CCCC[S+]([O-])c1sc2nc(-c3ccncc3)n3ccnc3c2c1N (stereo not drawn) [Example 16]
4 to 10	CCCC[S+]([O-])c1sc2nc(-c3ccc(N4CCOCC4)nc3)n3ccnc3c2c1N (stereo not drawn) [Example 17]
4 to 10	CCCC[S+]([O-])c1sc2nc(-c3ccccc3)n3c(C)nnc3c2c1N (stereo not drawn) [Example 4, 8-(butylsulfinyl)-3-methyl-5-phenylthieno[3,2-e][1,2,4]triazolo[4,3-c]pyrimidin-9-amine]
4 to 10	CCCC[S+]([O-])c1sc2nc(-c3cnccn3)n3ccnc3c2c1N (stereo not drawn) [Example 10]
4 to 10	Nc1c([S+]([O-])C2CCCCC2)sc2nc(-c3ccccc3)n3ccnc3c12 (stereo not drawn) [Example 8]
4 to 10	CCCC[S+]([O-])c1sc2nc(-c3ccccc3)n3cc(C(F)(F)F)nc3c2c1N (stereo not drawn) [Example 6]
10 to 15	Nc1c([S+]([O-])Cc2ccccc2)sc2nc(-c3ccccc3)n3ccnc3c12 (stereo not drawn) [Example 23]
4 to 10	CCCC[S+]([O-])c1sc2nc(-c3ccccc3)n3ccnc3c2c1N (stereo not drawn) [Example 1, 8-(butylsulfinyl)-5-phenylimidazo[1,2-c]thieno[3,2-e]pyrimidin-9-amine]
1.5 to 4	CCCC[S+]([O-])c1sc2nc(-c3ncccn3)n3ccnc3c2c1N (stereo not drawn) [Example 12]
15 to 30	CCCC[S+]([O-])c1sc2nc(-c3ccccc3)n3ccnc3c2c1C (stereo not drawn) [Example 20]
1.5 to 4	CCCC[S+]([O-])c1sc2nc(-c3cnn(C)c3)n3ccnc3c2c1N (stereo not drawn) [Example 15]
10 to 15	CCCC[S+]([O-])c1sc2nc(-c3ccccc3)n3cnnc3c2c1N (stereo not drawn) [Example 18]
